Laboratory results as given in US9603845B2, “Prophylactic agent and/or therapeutic agent for stress urinary incontinence” (priority 2012, dated 2017).
Marks after values point to notes of the source that are not given here.

What was measured:
[1] = test system: stress urinary incontinence model rats; conditions: rat, in vivo
female SD rats = experiment: Leak point pressure (LPP) of a rat: intravesical pressure when urinary leakage occurs; assay type: in vivo; conditions: 3 mg/kg intravenous, 5 minutes after administration; for Leak point pressure (LPP): urethane-anesthetized, spinal cord-transected female SD rats, average ± standard error, physiological saline 24.6±0.6

CCCOC(C(=O)OC1CCNCC1)(c1ccccc1)c1ccccc1 [the compound of the present invention, 4-piperidyl diphenylpropoxyacetate]
Frequency of urinary incontinence, 30 minutes after administration [1]: 4 | Frequency of urinary incontinence, 2 hours after administration [1]: 3* | Number of rats that express urinary incontinence due to the electrical stimulus (in words) [1]: significantly decreased | Frequency of urinary incontinence, before administration ([1]; po): 8 | LPP compared with the physiological saline group (in words) (female SD rats): significantly higher | Leak point pressure (LPP) (female SD rats): 31.1±2.3 cmH2O

CCCOC(C(=O)OC1CCN(C)CC1)(c1ccccc1)c1ccccc1 [propiverine, α,α-diphenyl-α-n-propoxy acetic acid 1-methyl-4-piperidyl ester, reference compound]
LPP compared with the physiological saline group (in words) (female SD rats): no significant difference | Leak point pressure (LPP) (female SD rats): 24.9±1.9 cmH2O
